Measured values from patent US8486962B2, “Antifungal agents” (F2G Ltd., priority 2005, dated 2013).
In brackets after ≈: the same amount, converted by molar mass. Read-outs that look alike come from different tables or passages of the source.

Assays:
Assay type in all cases: cell-based
Aspergillus flavus = test: MIC, YAG medium, Aspergillus flavus; details: Aspergillus flavus, YAG medium
Experimental: (§1) Measurement of Minimum Inhibitory Concentrations (MICs)
(§2) Between 1 and 5 mgs of compound were accurately weighed out into a sterile Eppendorf tube. The compound was dissolved in DMSO to give a solution containing 5 mg/ml. Tubes were stored at −20° C. until required.
(§3) On the day of testing thawed solutions were vortex mixed to ensure homogeneity. 30 μl of solution was removed and added to 570 μl of sterile water in a separate sterile Eppendorf. The thoroughly mixed solution was used to prepare a series of doubling dilutions in water, in a deep well plate. Eleven replicate plates were prepared using a Minitrak by aspirating 20 μl from each well into eleven clear polystyrene 96 well plates.
(§4) Spores of Aspergillus spp (Aspergillus fumigatus, Aspergillus terreus, Aspergillus niger and Aspergillus flavus) were harvested from cultures grown on Sabarauds agar for 5 days, and resuspended in PBS/Tween 80 to approx 1×10^7 cfu/ml Other filamentous fungi (Fusarium solani, Scedosporium spp., Trichophyton spp., Absidia corymbifera), were grown on Sabarauds agar for 2-10 days and spores/hyphae resuspended in PBS/Tween to give approx 1×10^7 cfU/ml. Candida species (Candida albicans, Candida glabrata, Candida krusei, Candida parapsilosis and Candida tropicalis) were grown on Sabarauds agar, cells were harvested from the agar using a sterile loop and resuspended in PBS/Tween 80 to approx 1×10^6 cfu/ml. Each organism suspension was diluted in RPMI medium, containing 2% glucose and 0.135M MOPS buffer (pH7.0) to 2×10^4 cfu/ml for Aspergillus spp and other filamentous fungi and 2×10^3 cfu/ml for yeast. 80 μl of an organism suspension was added to each well of the plate containing drug dilutions.
(§5) This produced MIC plates with a drug range 50-0.05 mg/L and organism inocula of 1-2×10^4 cfu/ml for Aspergillus spp and other filamentous fungi and 1-2×10^3 cfu/ml for yeasts. All plates were incubated for 24-48 hrs at 35° C. Growth was assessed by monitoring the optical density at 485 nm for each well. The MIC of a compound is the lowest drug concentration that inhibits growth of an organism by >80% compared with a drug free control. MICs are recorded as mg/L. Other growth media can be used for susceptibility testing, and the activity of the described compounds can also be assessed in a medium comprising, 1% glucose, 1% ammonium chloride and 0.5% yeast extract (YAG medium). To perform MIC tests in this medium, dilutions of compounds are prepared in microtitre plates as described above. Fungal strains to be tested are grown and harvested in an identical manner to that described above, each organism suspension is then diluted in YAG medium to 2×10^4 cfu/ml for Aspergillus spp and other filamentous fungi and 2×10^3 cfu/ml for yeast. 80 μl of an organism suspension was added to each well of the plate containing drug dilutions. This produced MIC plates with a drug range 50-0.05 mg/L and organism inocula of 1-2×10^4 cfu/ml for Aspergillus spp and other filamentous fungi and 1-2×10^3 cfu/ml for yeasts. All plates were incubated for 24 hrs at 35° C. Growth was assessed by monitoring the optical density at 485 nm for each well. The MIC of a compound is the lowest drug concentration that inhibits growth of an organism by >70% compared with a drug free control. MICs are recorded as mg/L. In cases where the MIC of an organism is […]0.05 mg/L the MIC is repeated using a concentration range of 0.5-0.0005 mg/L. MIC tests in YAG medium have more clear-cut endpoints and have slightly lower MICS than those performed in RPMI medium.
(§6) The following organisms were tested: Aspergillus fumigatus AF293 and Aspergillus fumigatus AF210, Aspergillus niger, Aspergillus terreus, Aspergillus favus, Candida albicans, Candida krusei, Candida tropicalis, Candida glabrata, Candida parapsilosis, Trichophyton rubrum, Trichophyton mentagrophytes, Scedosporium prolificans, Scedosporium apiospermum, Absidia corymbifera, Fusarium solani.

[1] = system: Aspergillus fumigatus AF293; test: MIC, YAG medium, Aspergillus fumigatus AF293; details: Aspergillus fumigatus, AF293; YAG medium; read-out: MIC A Fum. 293
Experimental: as §1, §2, §3, §4, §5, §6

Aspergillus niger = test: MIC, YAG medium, Aspergillus niger; details: Aspergillus niger, YAG medium
Experimental: as §1, §2, §3, §4, §5, §6

Aspergillus terreus = test: MIC, YAG medium, Aspergillus terreus; details: Aspergillus terreus, YAG medium
Experimental: as §1, §2, §3, §4, §5, §6

[2] = system: Aspergillus fumigatus AF210; test: MIC, YAG medium, Aspergillus fumigatus AF210; details: Aspergillus fumigatus, AF210; YAG medium; read-out: MIC A Fum. 210
Experimental: as §1, §2, §3, §4, §5, §6

Row | MIC (Aspergillus flavus; read-out: MIC A Flavus 01) [µg/mL] | MIC [1] [µg/mL] | MIC (Aspergillus niger; read-out: MIC A Niger 1) [µg/mL] | MIC (Aspergillus terreus; read-out: MIC A Terreus 4) [µg/mL] | MIC [2] [µg/mL] | MIC (Aspergillus flavus; read-out: MIC A Flavus) [µg/mL] | MIC (Aspergillus niger; read-out: MIC A Niger) [µg/mL] | MIC (Aspergillus terreus; read-out: MIC A Terreus) [µg/mL] | SMILES
1 | > 50 | > 50 | 3.1 (≈ 8.72 µM) | > 50 | > 50 | – | – | – | CN(C(=O)C(=O)c1c(-c2cccnc2)cc2ccccn12)c1ccccc1 [Example 187, N-Methyl-2-oxo-N-phenyl-2-(2-pyridin-3-yl-indolizin-3-yl)-acetamide]
2 | 0.4 (≈ 1.11 µM) | > 50 | 0.4 (≈ 1.11 µM) | > 50 | > 50 | – | – | – | COc1ccc(NC(=O)C(=O)c2c(-c3ccco3)cc3ccccn23)cc1 [Example 164, 2-(2-Furan-2-yl-indolizin-3-yl)-N-(4-methoxy-phenyl)-2-oxo-acetamide]
3 | 0.05 (≈ 0.116 µM) | 1.6 (≈ 3.72 µM) | 3.1 (≈ 7.2 µM) | 0.4 (≈ 0.929 µM) | 1.6 (≈ 3.72 µM) | – | – | – | COc1cc(NC(=O)C(=O)c2c(-c3ccccc3)cc3ccccn23)cc(OC)c1OC [Example 222, 2-Oxo-2-(2-phenyl-indolizin-3-yl)-N-(3,4,5-trimethoxy-phenyl)-acetamide]
4 | 0.4 (≈ 1.13 µM) | 50 (≈ 141 µM) | > 50 | 0.8 (≈ 2.25 µM) | 1.6 (≈ 4.5 µM) | – | – | – | Cc1ccc(NC(=O)C(=O)c2c(-c3ccncc3)cc3ccccn23)cc1 [Example 171, 2-Oxo-2-(2-pyridin-4-yl-indolizin-3-yl)-N-p-tolyl-acetamide]
5 | > 50 | > 50 | 1.6 (≈ 4.16 µM) | 50 (≈ 130 µM) | > 50 | – | – | – | O=C(Nc1ccc(C(=O)O)cc1)C(=O)c1c(-c2ccccc2)cc2ccccn12 [Example 159, 4-[2-Oxo-2-(2-phenyl-indolizin-3-yl)-acetylamino]-benzoic acid]
6 | 0.1 (≈ 0.257 µM) | 6.25 (≈ 16.1 µM) | 0.1 (≈ 0.257 µM) | 0.2 (≈ 0.514 µM) | 1.6 (≈ 4.11 µM) | – | – | – | COc1ccc(NC(=O)C(=O)c2c(-c3ccc(F)cc3)cc3ccccn23)cn1 [Example 157, 2-[2-(4-Fluoro-phenyl)-indolizin-3-yl]-N-(6-methoxy-pyridin-3-yl)-2-oxo-acetamide]
7 | 6.25 (≈ 16.2 µM) | > 50 | > 50 | 0.8 (≈ 2.08 µM) | > 50 | – | – | – | COc1ccc(NC(=O)C(=O)c2c(-c3ccccc3)cc3cc(C)ccn23)cn1 [Example 193, N-(6-Methoxy-pyridin-3-yl)-2-(7-methyl-2-phenyl-indolizin-3-yl)-2-oxo-acetamide]

More lines, now with the values behind:

Row | SMILES | MIC (Aspergillus flavus; read-out: MIC A Flavus 01) [µg/mL] | MIC [1] [µg/mL] | MIC (Aspergillus niger; read-out: MIC A Niger 1) [µg/mL] | MIC (Aspergillus terreus; read-out: MIC A Terreus 4) [µg/mL] | MIC [2] [µg/mL] | MIC (Aspergillus flavus; read-out: MIC A Flavus) [µg/mL] | MIC (Aspergillus niger; read-out: MIC A Niger) [µg/mL] | MIC (Aspergillus terreus; read-out: MIC A Terreus) [µg/mL]
8 | Cc1cccc(NC(=O)C(=O)c2c(-c3cccnc3)cc3ccccn23)c1 [Example 215, 2-Oxo-2-(2-pyridin-3-yl-indolizin-3-yl)-N-m-tolyl-acetamide] | 0.05 (≈ 0.141 µM) | 0.8 (≈ 2.25 µM) | 0.4 (≈ 1.13 µM) | 0.05 (≈ 0.141 µM) | 0.4 (≈ 1.13 µM) | – | – | –
9 | O=C(Nc1ccc(F)cc1)C(=O)c1c(-c2ccc(F)cc2)cc2ccccn12 [Example 209, N-(4-Fluoro-phenyl)-2-[2-(4-fluoro-phenyl)-indolizin-3-yl]-2-oxo-acetamide] | 0.1 (≈ 0.266 µM) | > 50 | 0.05 (≈ 0.133 µM) | 0.05 (≈ 0.133 µM) | > 50 | – | – | –
10 | O=C(C(=O)N1CCc2ccccc21)c1c(-c2ccccc2)cc2ccccn12 [Example 218, 1-(2,3-Dihydro-indol-1-yl)-2-(2-phenyl-indolizin-3-yl)-ethane-1,2-dione] | > 50 | > 50 | 0.4 (≈ 1.09 µM) | > 50 | > 50 | – | – | –
11 | COc1ccc2cc(-c3ccccc3)c(C(=O)C(=O)Nc3ccc(N(C)C)cc3)n2c1 [Example 242, N-(4-Dimethylamino-phenyl)-2-(6-methoxy-2-phenyl-indolizin-3-yl)-2-oxo-acetamide] | 0.05 (≈ 0.121 µM) | 0.8 (≈ 1.93 µM) | 0.4 (≈ 0.967 µM) | 0.1 (≈ 0.242 µM) | 0.8 (≈ 1.93 µM) | – | – | –
12 | COc1ccc2cc(-c3ccccc3)c(C(=O)C(=O)Nc3ccc(OC)nc3)n2c1 [Example 195, 2-(6-Methoxy-2-phenyl-indolizin-3-yl)-N-(6-methoxy-pyridin-3-yl)-2-oxo-acetamide] | 0.4 (≈ 0.996 µM) | 6.25 (≈ 15.6 µM) | 1.6 (≈ 3.99 µM) | 0.4 (≈ 0.996 µM) | 6.25 (≈ 15.6 µM) | – | – | –
13 | COc1ccc(NC(=O)C(=O)c2c(-c3cccnc3)cc3ccccn23)c(OC)c1 [Example 174, N-(2,4-Dimethoxy-phenyl)-2-oxo-2-(2-pyridin-3-yl-indolizin-3-yl)-acetamide] | 0.1 (≈ 0.249 µM) | 6.25 (≈ 15.6 µM) | 1.6 (≈ 3.99 µM) | 0.2 (≈ 0.498 µM) | 3.1 (≈ 7.72 µM) | – | – | –
14 | COc1ccc(NC(=O)C(=O)c2c(-c3ccncc3)cc3ccccn23)cc1 [Example 162, N-(4-Methoxy-phenyl)-2-oxo-2-(2-pyridin-4-yl-indolizin-3-yl)-acetamide] | > 50 | > 50 | 3.1 (≈ 8.35 µM) | > 50 | > 50 | – | – | –
15 | CNC(=O)c1ccc(NC(=O)C(=O)c2c(-c3ccccc3)cc3ccccn23)cc1 [Example 153, N-Methyl-4-[2-oxo-2-(2-phenyl-indolizin-3-yl)-acetylamino]-benzamide] | 3.1 (≈ 7.8 µM) | > 50 | 0.8 (≈ 2.01 µM) | > 50 | 25 (≈ 62.9 µM) | – | – | –
16 | O=C(Nc1ccc(Cl)cc1)C(=O)c1c(-c2cccnc2)cc2ccccn12 [Example 197, N-(4-Chloro-phenyl)-2-oxo-2-(2-pyridin-3-yl-indolizin-3-yl)-acetamide] | 0.4 (≈ 1.06 µM) | 3.1 (≈ 8.25 µM) | 0.8 (≈ 2.13 µM) | 0.2 (≈ 0.532 µM) | 3.1 (≈ 8.25 µM) | – | – | –
17 | COc1ccc(NC(=O)C(=O)c2c(-c3ccco3)cc3ccccn23)c(OC)c1 [Example 169, N-(2,4-Dimethoxy-phenyl)-2-(2-furan-2-yl-indolizin-3-yl)-2-oxo-acetamide] | 0.4 (≈ 1.02 µM) | 3.1 (≈ 7.94 µM) | 0.4 (≈ 1.02 µM) | 3.1 (≈ 7.94 µM) | 6.25 (≈ 16 µM) | – | – | –
18 | O=C(Nc1ccc(Cl)cc1Cl)C(=O)c1c(-c2cccnc2)cc2ccccn12 [Example 224, N-(2,4-Dichloro-phenyl)-2-oxo-2-(2-pyridin-3-yl-indolizin-3-yl)-acetamide] | 0.05 (≈ 0.122 µM) | 6.25 (≈ 15.2 µM) | 0.2 (≈ 0.487 µM) | 0.1 (≈ 0.244 µM) | 6.25 (≈ 15.2 µM) | – | – | –
19 | Cc1ccc(NC(=O)C(=O)c2c(-c3ccccc3)cc3cc(C)ccn23)cc1 [Example 191, 2-(7-Methyl-2-phenyl-indolizin-3-yl)-2-oxo-N-p-tolyl-acetamide] | 0.8 (≈ 2.17 µM) | 3.1 (≈ 8.41 µM) | 1.6 (≈ 4.34 µM) | 0.2 (≈ 0.543 µM) | 3.1 (≈ 8.41 µM) | – | – | –
20 | CCN(C(=O)C(=O)c1c(-c2ccccc2)cc2ccccn12)c1ccccc1 [Example 302, N-Ethyl-2-oxo-N-phenyl-2-(2-phenyl-indolizin-3-yl)-acetamide] | – | 50 (≈ 136 µM) | – | – | 25 (≈ 67.9 µM) | > 50 | > 50 | 25 (≈ 67.9 µM)
21 | CN(C(=O)C(=O)c1c(-c2ccccc2)cc2ccccn12)c1ccccc1 [Example 186, N-Methyl-2-oxo-N-phenyl-2-(2-phenyl-indolizin-3-yl)-acetamide] | 25 (≈ 70.5 µM) | 12.5 (≈ 35.3 µM) | 3.1 (≈ 8.75 µM) | 12.5 (≈ 35.3 µM) | 3.1 (≈ 8.75 µM) | – | – | –
22 | Cc1ccc(NC(=O)C(=O)c2c(-c3ccccc3)cc3cccc(C)n23)cc1 [Example 188, 2-(5-Methyl-2-phenyl-indolizin-3-yl)-2-oxo-N-p-tolyl-acetamide] | 3.1 (≈ 8.41 µM) | 1.6 (≈ 4.34 µM) | 0.4 (≈ 1.09 µM) | 0.8 (≈ 2.17 µM) | 0.8 (≈ 2.17 µM) | – | – | –
